Data published in patent US7491819B1 (priority 2004, dated 2009).
pEC50: −log10 of the molar value. Like-named read-outs stand apart in the source and are kept apart here.

Assays:
NL36G virus = tested on: NL36G virus
Experimental: Virus and cell lines. The T-cell line, MT-2, was obtained through the AIDS Research and Reference Reagent Program. MT-2 cells were sub-cultured twice a week in RPMI 1640 medium supplemented with 10% fetal bovine serum, 2 mM L-glutamine, and 10 mM HEPES buffer pH 7.5. The HIV-1303B virus is a molecular clone derived from the NL4-3 strain of HIV-1 that was obtained from the NIH AIDS Research and Reference Reagent Program. For combinations with enfuvirtide, the NL36G virus was used. […] Virus stocks were made by transfecting 293T cells with a proviral DNA clone using LipofectAMINE PLUS (Invitrogen), according to the manufacturer's instructions. Three days post-transfection, virus was harvested and passaged once in MT-2 cells before titration in MT-2 cells.
Chemicals. Example 19, atazanavir, didanosine, stavudine, efavirenz, and enfuvirtide (T-20) were synthesized by Bristol-Myers Squibb using published or known reactions. […] Tenofovir was tested as tenofovir disopoxil fumarate. Zidovudine and zalcitabine were purchased from Sigma, and emtricitabine from Moravek Biochemicals.
Drug Susceptibility and Cytotoxicity Assays. For drug susceptibility assays, MT-2 cells were infected with HIV-1 303B (or NL36G), at an MOI of 0.001, and seeded into 96-well microtiter plates (2.5×10^5 cells/ml) containing serial dilutions of test compounds. […] Each drug ratio consisted of an array of 3-fold serial dilutions, and was performed with eight or more replicas on separate multi-well plates. HIV infected cells were incubated at 37° C. in 5% CO2, and on day five post-infection, the extent of virus replication was measured by determining cell viability using the CellTiter 96 Aqueous Non-Radioactive Cell Proliferation Assay (Promega). […] Cytotoxicity assays were performed in parallel with the combination experiments. Here, uninfected cells were exposed to the same drug combinations, and assayed after five days for cell viability using the MTS assay.
Analysis of Drug Combination Effects. For determination of combination index (CI) values, drugs were diluted in a fixed ratio and multiple ratios were analyzed. The drug serial dilutions spanned a range of concentrations near the EC50 value of each compound, so that equivalent antiviral activities could be compared. The normalized responses from each therapy are fit to the four-parameter logistic model with a common minimum and maximum across all therapies. Conceptually, this equation can be written as
In this equation, Fa stands for “fraction affected,” and represents the fraction of the viral load that has been inactivated. […] The EC50, represented by the Ci in the above equation, is the drug concentration that is expected to reduce the amount of virus by 50%, and the Bi are the parameters that reflects the slope of the concentration-response curve. For this assay, A is the bottom plateau common to all curves, D is the common top plateau, Bj is the “slope” parameter for the jth therapy, and Cj is the concentration that produces an effect equal to the average of A and D for the jth therapy. Therapies 1 and 2 correspond to mono therapies 1 and 2, respectively. Therapies 3, 4, and 5 correspond to the three combination therapies. EC50 values for each drug were determined from the single drug experiments, using the above equation. The equation was fit using a nonlinear regression routine (Proc Nlin) in PC SAS version 8.2 (SAS Institute Inc.).
To assess antiviral effects of different drug combination treatments, combination indices (CIs) were calculated according to Chou and Rideout. The combination index was computed as
In this equation [Dm]1 and [Dm]2 are the concentrations of drugs that would individually produce a specific level of effect, while [D]1 and [D]2 are the concentrations of drugs in combination that would produce the same level of effect.
Theoretically, additivity is implied if the CI is equal to one, synergy if the CI is less than one, and antagonism if the CI is greater than one.

MT-2 cells = experiment: Cytotoxicity assay of the drug combinations, uninfected cells, MTS; assay type: cell-based; conditions: highest concentrations tested, five days
Experimental: Drug Susceptibility and Cytotoxicity Assays. For drug susceptibility assays, MT-2 cells were infected with HIV-1 303B (or NL36G), at an MOI of 0.001, and seeded into 96-well microtiter plates (2.5×10^5 cells/ml) containing serial dilutions of test compounds. […] Each drug ratio consisted of an array of 3-fold serial dilutions, and was performed with eight or more replicas on separate multi-well plates. HIV infected cells were incubated at 37° C. in 5% CO2, and on day five post-infection, the extent of virus replication was measured by determining cell viability using the CellTiter 96 Aqueous Non-Radioactive Cell Proliferation Assay (Promega). Maximal cell protection was typically seen in samples treated with the highest drug concentration. In the cell viability assay, the tetrazolium compound MTS (3-(4,5-dimethylthiazol-2-yl)-5-(3-carboxymethoxyphenyl)-2-4-sulphophenyl-2H-tetrazolium) is added to cells, whereby enzymes in metabolically active cells convert it into a colored formazan product, which is quantitated by reading absorbance at 490 nm. Cytotoxicity assays were performed in parallel with the combination experiments. Here, uninfected cells were exposed to the same drug combinations, and assayed after five days for cell viability using the MTS assay.

[1] = in combination with Example 19, EC50 ratio 1:1 (molar 5:44)
[2] = in combination with Example 19, EC50 ratio 1:2.5 (molar 1:22)
[3] = in combination with Example 19, EC50 ratio 2.5:1 (molar 25:88)

enfuvirtide
overall antiviral effect of the two-drug combination with Example 19 (in words) (NL36G virus; classification from combination indices): synergistic
Combination Indices at 50% HIV Inhibition (Confidence Interval) (NL36G virus; [1]): 0.68 (0.59, 0.77)
Combination Indices at 75% HIV Inhibition (Confidence Interval) (NL36G virus; [1]): 0.59 (0.48, 0.70)
Combination Indices at 90% HIV Inhibition (Confidence Interval) (NL36G virus; [1]): 0.52 (0.37, 0.67)
Combination Indices at 50% HIV Inhibition (Confidence Interval) (NL36G virus; [2]): 0.75 (0.65, 0.85)
Combination Indices at 75% HIV Inhibition (Confidence Interval) (NL36G virus; [2]): 0.60 (0.49, 0.70)
Combination Indices at 90% HIV Inhibition (Confidence Interval) (NL36G virus; [2]): 0.48 (0.34, 0.61)
Combination Indices at 50% HIV Inhibition (Confidence Interval) (NL36G virus; [3]): 0.76 (0.65, 0.86)
Combination Indices at 75% HIV Inhibition (Confidence Interval) (NL36G virus; [3]): 0.73 (0.59, 0.86)
Combination Indices at 90% HIV Inhibition (Confidence Interval) (NL36G virus; [3]): 0.71 (0.50, 0.92)
pEC50 (NL36G virus; single drug, MT-2 cells, MOI 0.001, day five, MTS cell viability): 7.21
cytotoxicity of the drug combinations with Example 19 (MT-2 cells): No significant cytotoxicity
